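A five-concentration, 48-hour dose response in 96-well plates underlies each endpoint, interpolated linearly between surrounding concentrations. Here, GI50 denotes the concentration required for 50% inhibition of growth. Definition used: TGI = concentration required for complete inhibition of growth.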 Some results are limits rather than exact numbers.

Among the test systems are SK-MEL-28 melanoma; 786-0 renal; A498 renal; RPMI-8226 leukemia; K-562 leukemia; KM12 colon; M14 melanoma; SNB-75 CNS; SK-MEL-5 melanoma; ACHN renal.
Holding throughout (assay): NCI-60 cell line screen, 48 h

Regarding `N[C@H]1C2C3CC4C5CC(C42)C1(c1ccccc1)C53` (some centres not stated), the TGI with SK-MEL-28 melanoma, in the experiment on 786-0 renal, in the experiment on A498 renal, in the experiment on RPMI-8226 leukemia, in the experiment with K-562 leukemia and with KM12 colon was > 100 µM throughout. Also, the TGI in the experiment on M14 melanoma, in the experiment with SNB-75 CNS, in the experiment on SK-MEL-5 melanoma and with ACHN renal was > 100 µM each time.
As to `Cc1cc(C)nc(NS(=O)(=O)c2ccc(Nc3c4ccccc4nc4c(C(=O)Nc5ccc(S(N)(=O)=O)cc5)cccc34)cc2)n1`, the TGI in the experiment on SK-MEL-28 melanoma, in the experiment on 786-0 renal, in the experiment with A498 renal, in the experiment with RPMI-8226 leukemia, in the experiment with K-562 leukemia and in the experiment with KM12 colon was > 100 µM each time. Further, the TGI in the experiment on M14 melanoma was > 100 µM; with SNB-75 CNS, 88.4 µM; in the experiment with SK-MEL-5 melanoma, > 100 µM; in the experiment on ACHN renal, > 100 µM.
Take `CC(Cc1ccc(Cl)cc1Cl)NO` (configuration not stated): the TGI in the experiment on SK-MEL-28 melanoma, in the experiment with 786-0 renal, with A498 renal, in the experiment on RPMI-8226 leukemia, with K-562 leukemia and in the experiment on KM12 colon was > 100 µM throughout. Besides, the TGI in the experiment on M14 melanoma, in the experiment on SNB-75 CNS, in the experiment with SK-MEL-5 melanoma and in the experiment with ACHN renal was > 100 µM each time.
Take `O=C(c1cccs1)c1c(C(F)(F)F)n([O-])c2ccc(C(F)(F)F)cc2[n+]1=O`: the GI50 in the experiment on SK-MEL-28 melanoma is 0.451 µM; with 786-0 renal it was 0.188 µM; with A498 renal it was 1.65 µM; in the experiment on RPMI-8226 leukemia, 0.279 µM; in the experiment with K-562 leukemia, 0.251 µM; with KM12 colon it was 0.295 µM. The GI50 with M14 melanoma is 0.791 µM; with SNB-75 CNS it was 0.502 µM; in the experiment on SK-MEL-5 melanoma, 0.483 µM; with ACHN renal it was 0.183 µM. The TGI stood at 0.908 µM in the experiment with SK-MEL-28 melanoma; 0.339 µM in the experiment with 786-0 renal; 3.04 µM with A498 renal; 1.12 µM with RPMI-8226 leukemia; 1.21 µM in the experiment with K-562 leukemia; 0.774 µM in the experiment on KM12 colon. Also, the TGI in the experiment with M14 melanoma is 1.87 µM; with SNB-75 CNS, 1.21 µM; in the experiment on SK-MEL-5 melanoma it was 0.914 µM; with ACHN renal, 0.326 µM.
Turning to `Cc1c(NC(=O)C(=O)N=NC(=O)c2ccncc2)c(O)c2ccccc2c1O`, the TGI is 31.7 µM with SK-MEL-28 melanoma; 59.2 µM in the experiment with 786-0 renal; 43.5 µM in the experiment on A498 renal; > 82 µM with RPMI-8226 leukemia; > 82 µM in the experiment with K-562 leukemia; > 100 µM in the experiment on KM12 colon. In addition, the TGI amounted to 22.7 µM in the experiment with M14 melanoma, 36.2 µM in the experiment on SNB-75 CNS, 5.8 µM in the experiment on SK-MEL-5 melanoma and 29.6 µM in the experiment on ACHN renal.
Turning to `CCOC(=O)c1cccc(=O)c(C(=O)OCC)c1`, the TGI in the experiment on SK-MEL-28 melanoma, with 786-0 renal, in the experiment with A498 renal, with RPMI-8226 leukemia, with K-562 leukemia and in the experiment on KM12 colon was > 100 µM each time. In addition, the TGI with M14 melanoma, with SNB-75 CNS, in the experiment with SK-MEL-5 melanoma and in the experiment with ACHN renal was > 100 µM each time.
`O=C1C2=C(c3ccccc31)C(c1cccc(Cl)c1)NC(=S)N2` (configuration not stated): the TGI with SK-MEL-28 melanoma, in the experiment on 786-0 renal, with A498 renal, in the experiment with RPMI-8226 leukemia, in the experiment with K-562 leukemia and in the experiment with KM12 colon was > 100 µM in each case. The TGI in the experiment with M14 melanoma, with SNB-75 CNS, in the experiment with SK-MEL-5 melanoma and in the experiment with ACHN renal was > 100 µM in each case.
`COC(=O)c1cnc(=O)n(C2CC(O)C(CO)O2)c1` (configuration not stated): the GI50 with SK-MEL-28 melanoma was > 100 µM; with 786-0 renal it was > 100 µM; in the experiment on A498 renal it was > 100 µM; with RPMI-8226 leukemia, 1.42 µM; in the experiment on K-562 leukemia it was > 100 µM; with KM12 colon it was > 100 µM. Moreover, the GI50 in the experiment on M14 melanoma, in the experiment with SNB-75 CNS, with SK-MEL-5 melanoma and with ACHN renal was > 100 µM each time. The TGI in the experiment on SK-MEL-28 melanoma is > 100 µM; in the experiment on 786-0 renal, > 100 µM; in the experiment with A498 renal it was > 100 µM; in the experiment on RPMI-8226 leukemia, > 58.5 µM; with K-562 leukemia, > 100 µM; in the experiment on KM12 colon, > 100 µM. Moreover, the TGI in the experiment with M14 melanoma, in the experiment with SNB-75 CNS, in the experiment with SK-MEL-5 melanoma and in the experiment on ACHN renal was > 100 µM in each case.
`O=[N+]([O-])c1ccc(Sc2ncccn2)c([N+](=O)[O-])c1`: the GI50 is 3.89 µM in the experiment with SK-MEL-28 melanoma; 4.59 µM in the experiment with 786-0 renal; 7.6 µM with A498 renal; 1.89 µM in the experiment with RPMI-8226 leukemia; 2.52 µM in the experiment on K-562 leukemia; 4.36 µM in the experiment with KM12 colon. Moreover, the GI50 was 5.26 µM in the experiment on M14 melanoma, 4.51 µM in the experiment with SNB-75 CNS, 10.4 µM in the experiment with SK-MEL-5 melanoma and 3.41 µM with ACHN renal. Besides, the TGI with SK-MEL-28 melanoma is 13.5 µM; in the experiment on 786-0 renal, 16.1 µM; with A498 renal it was 20.7 µM; with RPMI-8226 leukemia, 5.4 µM; with K-562 leukemia, 12.1 µM; in the experiment with KM12 colon, 15.9 µM. Further, the TGI was 18.4 µM in the experiment on M14 melanoma, 17.6 µM in the experiment with SNB-75 CNS, 22.4 µM in the experiment on SK-MEL-5 melanoma and 11.1 µM in the experiment on ACHN renal.
`CC(=O)Oc1c(C)n(CCCl)ccc1=O`: the TGI in the experiment with SK-MEL-28 melanoma, with 786-0 renal, in the experiment on A498 renal, in the experiment on RPMI-8226 leukemia, with K-562 leukemia and in the experiment on KM12 colon was > 100 µM throughout. Moreover, the TGI in the experiment on M14 melanoma, in the experiment on SNB-75 CNS, in the experiment on SK-MEL-5 melanoma and in the experiment on ACHN renal was > 100 µM each time.
For the compound `Cn1cc(-c2ccc(=O)n(Cc3cccc(-c4ncc(OCCN5CCOCC5)cn4)c3)n2)cn1`, the GI50 is > 89.5 µM in the experiment with SK-MEL-28 melanoma; > 100 µM in the experiment on 786-0 renal; 60.1 µM with A498 renal; 34 µM in the experiment on RPMI-8226 leukemia; 99.3 µM with K-562 leukemia; 52.2 µM with KM12 colon. Further, the GI50 in the experiment with M14 melanoma was 84.2 µM; in the experiment with SNB-75 CNS it was > 42.5 µM; in the experiment on SK-MEL-5 melanoma, 19.6 µM; with ACHN renal, > 83.6 µM. Further, the TGI with SK-MEL-28 melanoma, with 786-0 renal, in the experiment on A498 renal, in the experiment on RPMI-8226 leukemia, in the experiment with K-562 leukemia and in the experiment with KM12 colon was > 100 µM each time. Besides, the TGI in the experiment on M14 melanoma was > 100 µM; in the experiment on SNB-75 CNS it was > 100 µM; in the experiment with SK-MEL-5 melanoma, 59.1 µM; in the experiment with ACHN renal it was > 100 µM.
As for `COc1cc[nH]c1/C=C1\C(=O)Nc2ccc(F)c(C#C[C@@H](O)[C@@H](N)[C@@H](C)O)c21`, the GI50 was 0.648 µM in the experiment with SK-MEL-28 melanoma; 0.708 µM in the experiment on 786-0 renal; 0.397 µM with A498 renal; 0.683 µM in the experiment with RPMI-8226 leukemia; 0.651 µM in the experiment on K-562 leukemia; 0.0312 µM with KM12 colon. In addition, the GI50 is 0.413 µM with M14 melanoma, 0.112 µM in the experiment with SNB-75 CNS, 0.676 µM in the experiment on SK-MEL-5 melanoma and 0.323 µM in the experiment on ACHN renal. For the same compound, the TGI in the experiment with SK-MEL-28 melanoma worked out at 2.86 µM; in the experiment on 786-0 renal, 3.37 µM; with A498 renal, 0.955 µM; in the experiment on RPMI-8226 leukemia, 1.83 µM; in the experiment on K-562 leukemia, 3.44 µM; in the experiment with KM12 colon it was 2.19 µM. The TGI in the experiment on M14 melanoma turned out to be 1.24 µM; in the experiment with SNB-75 CNS, 0.75 µM; in the experiment with SK-MEL-5 melanoma, 2.35 µM; with ACHN renal it was 2.94 µM.
Regarding `NC(N)=NC(CC(=O)O)c1ccccc1` (configuration not stated), the TGI in the experiment with SK-MEL-28 melanoma, in the experiment on 786-0 renal, with A498 renal, with RPMI-8226 leukemia, with K-562 leukemia and in the experiment on KM12 colon was > 100 µM throughout. In addition, the TGI with M14 melanoma, in the experiment with SNB-75 CNS, with SK-MEL-5 melanoma and in the experiment on ACHN renal was > 100 µM in each case.
Regarding `CCOC(=O)/N=c1\ss/c(=N\C(=S)N(C)C)n1-c1ccccc1`, the GI50 in the experiment on SK-MEL-28 melanoma is 28.7 µM; in the experiment with A498 renal, 35 µM; with RPMI-8226 leukemia, > 100 µM; with KM12 colon, > 100 µM; in the experiment on M14 melanoma it was > 100 µM; with SNB-75 CNS it was 4.69 µM. In addition, the GI50 in the experiment on SK-MEL-5 melanoma was 18.8 µM. Besides, the TGI in the experiment on SK-MEL-28 melanoma, in the experiment with 786-0 renal, in the experiment with A498 renal, in the experiment with RPMI-8226 leukemia, in the experiment on K-562 leukemia and with KM12 colon was > 100 µM throughout. The TGI is > 100 µM in the experiment on M14 melanoma, 28.3 µM in the experiment with SNB-75 CNS, > 100 µM in the experiment with SK-MEL-5 melanoma and > 100 µM with ACHN renal.
For `CCCCCCCCCCCCc1ccc(C(=O)/C=C/C(=O)O)cc1`, the GI50 is 1.92 µM in the experiment with SK-MEL-28 melanoma; 2.03 µM with 786-0 renal; 13.2 µM in the experiment with A498 renal; 2.11 µM in the experiment with RPMI-8226 leukemia; 2.13 µM in the experiment on K-562 leukemia; 11.7 µM in the experiment on KM12 colon. For the same compound, the GI50 with M14 melanoma was 1.79 µM; in the experiment on SNB-75 CNS it was 1.66 µM; with SK-MEL-5 melanoma, 14.5 µM; with ACHN renal it was 1.73 µM. Besides, the TGI in the experiment with SK-MEL-28 melanoma was 3.74 µM; with 786-0 renal, 4.05 µM; with A498 renal it was 26.7 µM; in the experiment with RPMI-8226 leukemia it was 6.75 µM; with K-562 leukemia, 5.74 µM; with KM12 colon, 25.9 µM. In addition, the TGI came to 4.17 µM in the experiment with M14 melanoma, 10.4 µM in the experiment with SNB-75 CNS, 28.7 µM in the experiment on SK-MEL-5 melanoma and 3.15 µM in the experiment with ACHN renal.
For the compound `COc1ccc(-c2cc(-c3ccc(Nc4nc(Nc5ccc(Cl)cc5)nc(Nc5ccc(Cl)cc5)n4)cc3)nc(N)c2C#N)cc1`, the GI50 was 0.49 µM with SK-MEL-28 melanoma; 2.24 µM in the experiment on 786-0 renal; 2.3 µM in the experiment on A498 renal; 0.931 µM in the experiment on RPMI-8226 leukemia; 1.61 µM in the experiment on K-562 leukemia; 1.95 µM with KM12 colon. Also, the GI50 with M14 melanoma was 1.97 µM; in the experiment with SNB-75 CNS, 1.4 µM; with SK-MEL-5 melanoma, 1.78 µM; in the experiment with ACHN renal it was 0.803 µM. Further, the TGI was 1.22 µM in the experiment with SK-MEL-28 melanoma; 5.68 µM in the experiment with 786-0 renal; 5.84 µM in the experiment on A498 renal; > 21.9 µM in the experiment on RPMI-8226 leukemia; 5.38 µM in the experiment on K-562 leukemia; 4.24 µM in the experiment on KM12 colon. The TGI in the experiment on M14 melanoma came to 4.36 µM; in the experiment on SNB-75 CNS, 3.5 µM; with SK-MEL-5 melanoma it was 3.65 µM; with ACHN renal it was 2.18 µM.

The values are drawn from PubChem BioAssay (NCI).
